US20220401385A1, “Combination Therapy Based on PD-1 Signaling Inhibitors” (Kyoto University, priority 2019, published 2022)

Legend:
CD44 low CD8+ T cells [1] = assay: Cell proliferation by 3H uptake in vitro, CD44 low cells; type: cell-based, mice; settings: SPD 0.2 μM, 24 hours
Protocol: FIG. 4 CD8^+ T cells were isolated from the spleen of mice without tumor inoculation, and further isolated into CD44^+ (CD44 high) and CD44^− (CD44 low) cell populations. a) CD44 low cells were simulated with CD3/CD28 antibody beads and SPD (0.2 μM). After 30 minutes, 1 hour, 2 hours and 72 hours, OCR was measured with a Seahorse analyzer. b) At the same time, total ATP production and glycolytic pathway-derived or mitochondrial activity-derived ATP production were calculated at 30-minute, 1-hour and 2-hour. c) CD44 low cells (2×10^5 cells) were stimulated with CD3/CD28 antibody beads and SPD (0.2 μM). After 24 hours, cell proliferation was examined by means of 3H uptake. d) Spare respiratory capacity (SRC) was calculated from the OCR measurement after 72 hours in a), and results with and without SPD were compared. e) CD44 low cells were stimulated with CD3/CD28 antibody beads and SPD (0.2 μM). After 24 hours, frequencies between apoptotic and viable cells were calculated by PI and Annexin staining. f-j) CD44 high cells were analyzed under the same conditions and by the same methods as described in a-e) above. As regards statistical analysis, t-test was used for comparison of two groups, and ANOVA was used for comparison of three or more groups. * p<0.05, ** p<0.01, *** p<0.001, **** p<0.0001.

CD44 low CD8+ T cells [2] = assay: Observation of mitochondria under electron microscope, CD44 low cells; type: cell-based, mice; settings: SPD 0.2 μM, 1 hour
Protocol: (§1) FIG. 5 CD8^+ T cells were isolated from the spleen of mice without tumor inoculation, and further isolated into CD44^+ (CD44 high) and CD44^− (CD44 low) cell populations. a) CD44 low cells were simulated with CD3/CD28 antibody beads and SPD (0.2 μM). […] Protein expression levels after 1 hour and 2 hours were confirmed by western blotting with the respective indicated antibodies. As regards statistical analysis, t-test was used for comparison of two groups. * p<0.05, ** p<0.01, *** p<0.001, **** p<0.0001.
(§2) CD8^+ T cells (2×10^5) were stimulated with 0.2 μM spermidine for 1 hour. Then, cells were harvested, embedded in Ipgell (GenoStaff) and fixed with 4% paraformaldehyde and 2% glutaraldehyde. Images were taken with a transmission electron microscope (TEM). Mitochondrial size was determined with ImageJ software. As regards mitochondrial number, average numbers in single cell were determined with Prism software. Blind testing was used for observation and analysis of mitochondria.

CD44 high CD8+ T cells [3] = assay: Mitochondria-related proteomics in vitro, CD44 high cells; type: cell-based, mice; settings: late phase, 44 hours after SPD stimulation
Protocol: FIG. 6 CD8^+ T cells were isolated from the spleen of mice without tumor inoculation, and further isolated into CD44^+ (CD44 high) and CD44^− (CD44 low) cell populations. CD44 low cells and CD44 high cells were simulated with CD3/CD28 antibody beads and SPD (0.2 μM). After 1 hour and 44 hours, cells were collected and proteomics analyses regarding mitochondria-related proteins were conducted. A heat map showing the categories of respective signaling pathways, associated protein names and comparison of their expression levels is given.
T cells were prepared by two methods. For in vivo analysis, 13 days after tumor inoculation and 3 days after the start of therapy, draining lymph nodes from 5 mice were pooled, followed by isolation of CD8^+ T cells. From the isolated CD8^+ T cells, three samples each consisting of 1×10^6 cells were prepared and used for analysis. For in vitro experiments, 2×10^5 CD8^+ T cells stimulated with 0.2 μM spermidine for 1 hour were used. For mass spectrometry analysis, a Tandem Mass Tag (TMT) system or a Data Independent Acquisition (DIA) system was used. In the analysis of in vivo CD8^+ T cells (FIG. 3), those proteins which increased by 1.5-fold or more or decreased by 0.6-fold or less were extracted.

CD44 high CD8+ T cells [4] = assay: Observation of mitochondria under electron microscope, CD44 high cells; type: cell-based, mice; settings: SPD 0.2 μM, 1 hour
Protocol: as §1, §2

CD8+ T cells = assay: Seahorse ATP production and SRC of draining lymph node CD8+ T cells of treated aged mice; type: in vivo; settings: 56-week old mice, SPD combination treatment group
Protocol: FIG. 7 MC38 cells (5×10^5) were intradermally inoculated into 56-week old mice, which were treated along with the treatment schedule described in FIG. 1. PD-L1 antibody (2 mg/kg) and SPD (2 mg/kg) were used. a) Tumor growth curve and survival curve are shown. b) The frequency of CD8^+ T cells among lymphocytes infiltrating into tumor (in CD45^+ gate) and the absolute number of CD8^+ T cells per mg tumor 13 days after tumor inoculation are shown. c) CD8^+ T cells were isolated from spleen cells on the same schedule as b) and cultured for 20 hours under the stimulation with CD3/CD28. Cell proliferation was examined by means of ^3H uptake. d) CD8^+ T cells were isolated from draining lymph nodes on the same schedule as b) and glycolytic pathway-derived or mitochondrial metabolism-derived ATP production was calculated by Seahorse. e) Spare respiratory capacity (SRC) was also calculated in the experiment (d).
Oxygen consumption rates were measured using an XF96 Extracellular Flux Analyzer (Seahorse Bioscience). CD8^+ T cells (4×10^5) per well were seeded in a determined XF96 plate. […] In brief, basal OCR measurement was performed […] sequential addition of oligomycin, FCCP, and rotenone/antimycin A. SRC and ATP production rates were calculated by the following formulas: […]

## NCCCCNCCCN [SPD, spermidine]
CD44 low CD8+ T cells [1]
  cell proliferation: increased
CD44 low CD8+ T cells [2]
  mitochondrial size: no change
  structure of cristae: denser structures of cristae
CD44 high CD8+ T cells [3]
  expression levels of mitochondrial proteins and proteins of mitochondria-related metabolism: high
CD44 high CD8+ T cells [4]
  mitochondrial morphology: fusion of mitochondria
  number of mitochondria per cell: decreased
  size per mitochondrion: increased
  structure of cristae: damaged in structures
CD8+ T cells
  SRCs of CD8+ T cells: increased
  production of ATP, mitochondrial metabolism-dependent: increased
